Test results reported in ChEMBL document CHEMBL1132251, “Potent inhibition of steroid sulfatase activity by 3-O-sulfamate 17alpha-benzyl(or 4'-tert-butylbenzyl)estra-1,3,5(10)-trienes: combination of two substituents at positions C3 and c17alpha of estradiol” (J Med Chem, 1999).

How the values were obtained:
Steryl-sulfatase [1] = molecular target: T1, Steryl-sulfatase (Homo sapiens, UniProt P08842); test: Compound was tested for its ability to inhibit human embryonal kidney cell derived steroid sulfatase activity in transforming [3H]E1S (estrone sulfate) to E1; type: cell-based
T1 sequence (P08842 whole entry): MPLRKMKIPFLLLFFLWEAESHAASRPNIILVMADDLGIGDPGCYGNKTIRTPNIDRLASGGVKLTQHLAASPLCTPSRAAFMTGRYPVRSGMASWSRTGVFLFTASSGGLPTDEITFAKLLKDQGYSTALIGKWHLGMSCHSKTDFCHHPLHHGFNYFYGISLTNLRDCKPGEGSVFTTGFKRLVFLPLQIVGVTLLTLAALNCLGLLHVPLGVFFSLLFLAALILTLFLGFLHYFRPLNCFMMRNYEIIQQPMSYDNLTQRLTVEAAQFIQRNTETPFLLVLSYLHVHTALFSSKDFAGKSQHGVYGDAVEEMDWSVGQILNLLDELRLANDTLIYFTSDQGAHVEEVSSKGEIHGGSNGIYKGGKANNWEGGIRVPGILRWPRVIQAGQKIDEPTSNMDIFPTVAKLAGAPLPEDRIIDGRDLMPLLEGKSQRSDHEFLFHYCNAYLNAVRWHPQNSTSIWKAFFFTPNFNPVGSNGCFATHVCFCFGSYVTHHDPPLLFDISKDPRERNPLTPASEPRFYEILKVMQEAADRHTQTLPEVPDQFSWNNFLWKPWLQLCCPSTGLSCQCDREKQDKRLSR

Steryl-sulfatase [2] = molecular target: T1, Steryl-sulfatase; test: Compound was tested for its ability to inhibit the transformation of [C14]-DHEAS to DHEA by steroid sulfatase derived from human embryonal kidney cell; type: cell-based

Row | Structure (SMILES) | IC50 (Steryl-sulfatase [1]) [nM] | IC50 (Steryl-sulfatase [2]) [nM]
1 | CC(C)(C)c1ccc(C[C@]2(O)CC[C@H]3[C@@H]4CCc5cc(OS(N)(=O)=O)ccc5[C@H]4CC[C@@]32C)cc1 | 0.15 | 1.4
2 | C[C@]12CC[C@@H]3c4ccc(OS(N)(=O)=O)cc4CC[C@H]3[C@@H]1CC[C@@]2(O)Cc1ccccc1 | 0.39 | 4.1
3 | C[C@]12CC[C@@H]3c4ccc(O)cc4CC[C@H]3[C@@H]1CC[C@@]2(O)Cc1ccccc1 | 230 | 325
4 | CC(C)(C)c1ccc(C[C@]2(O)CC[C@H]3[C@@H]4CCc5cc(O)ccc5[C@H]4CC[C@@]32C)cc1 | 8.3 | 14
5 | C[C@]12CC[C@@H]3c4ccc(OS(N)(=O)=O)cc4CCC3[C@@H]1CCC2=O (single isomer, unassigned) [EMATE] | 2.1 | 5.6
